Laboratory results: patent US20250205204A1, “Transcription Factor Brn2 Inhibitory Compounds for Use as Therapeutics” (The University of British Columbia, priority 2021, published 2025)

Experiments:
[1] = Metabolic stability in liver microsomes (MLM); assay type: in vitro ADME, mice; conditions: 0.25 mg/mL protein
Method in brief: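 Mouse liver microsomes (0.25 mg/mL protein) in 50 mM potassium phosphate pH 7.4 at 37 °C with 1 µM compound, 1 mM NADPH, 0.1% DMSO; sampled 0–60 min in duplicate. LC-MS/MS parent depletion gives half-life; CL'int in mL/min/kg scaled with 45 mg protein/g liver, 90 g liver.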

42D^ENZR cells = assay: Cell proliferation, BRN2 expressing 42D cells (crystal violet); assay type: cell-based; conditions: about 72 hours
Method in brief: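 42D^ENZR (~7000/well) and 16D^CRPC (~5000/well) cells plated, compound added next day from 3× media stocks. After ~72 hours, cells fixed with glutaraldehyde, stained with crystal violet, dye eluted in Sorensen solution; absorbance read at 590 nm.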

16D^CRPC cells = assay: Cell proliferation, 16D cells that do not express BRN2 (crystal violet); assay type: cell-based; conditions: result in words
Experimental: Step 3: Cell Proliferation
Plate 42DE^NZR (˜7000 cells per well) and 16D^CRPC (˜5000 cells per well) cells in 96 well plate with a volume of 100 μL per well. • 2. Next day 1 mL aliquots of media are combined with 3× the desired concentration of compounds. The aliquots are vortexed and 50 μL of each 3× concentration is added to the 100 μL of media in each well to give the ix desired concentration.
The following are the desired concentrations:
0, 10 nM, 100 nM, 500 nM, 1 μM, 2.5 μM, 5 μM, 10 μM, 15 μM, 20 μM, 30 μM. • 3. Approximately 72 hours later, 17 μL of 10% Glutaraldehyde is added to each well and plates are placed on a shaker for 20-30 minutes. • 4. Media is washed off the fixed cells by slow submersion in a container of water. Then the water is removed by tapping the plate upside down. • 5. 75 μL of Crystal Violet™ solution is added into the 96 well plates and placed on a shaker for ˜30 minutes. • 6. Media is washed off the fixed cells by repeated slow submersion in a container of water and the plates are allowed to dry over-night. • 7. Next day, 75 μL of Sorensen Solution is accurately pipetted into each well. The plates placed on a shaker for ˜30 minutes. • 8. Absorbance is measured in the plate at 590 nm. Compounds that Show Specificity Towards 42DE^NZR Cells Vs 16D^CRPC Cells Progress to Step 4.
In TABLES 1 and 2, in columns Met Stab % and T½, refers to compound's stability in MLM. There is a distinction in TABLES 1 and 2 difference between “Active” and “Specific” or “Specificity”. Some of the compounds were first tested to quantify inhibition of BRN2 transcriptional activity in a luciferase assay to determine BRN2 inhibition at 10 μM and 30 μM concentrations. […] Generally, compounds having low inhibitory activity were compounds with less than about ˜30% or activation at either concentration (i.e. 10 μM or 30 μM). Furthermore, some compounds that lacked specificity could also show off-target effects.

half-life at 1 μM ([1]; mouse, liver microsomes, pH 7.4, 1 μM compound, read-out: T1/2 in mins (MLM)): 40 min
Met Stab % (60 mins) MLM ([1]; percent remaining at 60 min, 1 μM compound, 1 mM NADPH): 31%
Structure (SMILES): O=C1/C(=N\Nc2nc3ccccc3s2)Cc2ccccc21 [7-62, (Z)-2-(2-(benzo[d]thiazol-2-yl)hydrazineylidene)-2,3-dihydro-1H-inden-1-one]
Growth Specificity (42D^ENZR cells; 42D (express BRN2) versus 16D (no BRN2) cells, result in words): Specific to 42D
IC50 (42D^ENZR cells; 42D cells, proliferation, read-out: 42D IC50): 1000 nM
effect on 16D (16D^CRPC cells): no effect on 16D
